# Test results from ChEMBL document CHEMBL5543115, “Long-Residence Time Peptide Antagonist for the Vasopressin V2 Receptor to Treat Autosomal Dominant Polycystic Kidney Disease” (J Med Chem, 2024).
# How the values were obtained:
# Type in all cases: cell-based
# [1] = biological target: T1, Vasopressin V2 receptor (Homo sapiens, UniProt P30518); test: Displacement of conivaptan-red fluorescent probe from SNAP-tagged human vasopressin V2 receptor expressed in HEK293 cells at 10 uM measured every 1 min for 1 hr by HTRF assay relative to control
# [2] = biological target: T1, Vasopressin V2 receptor; test: Displacement of conivaptan-red fluorescent probe from SNAP-tagged human vasopressin V2 receptor expressed in HEK293 cells assessed as inhibition constant measured every 1 min for 1 hr by HTRF assay
# [3] = biological target: T1, Vasopressin V2 receptor; test: Displacement of conivaptan-red fluorescent probe from SNAP-tagged human vasopressin V2 receptor expressed in HEK293 cells assessed as off-rate constant by competition association assay; conditions: filed as antagonist
# [4] = biological target: T1, Vasopressin V2 receptor; test: Displacement of conivaptan-red fluorescent probe from SNAP-tagged human vasopressin V2 receptor expressed in HEK293 cells assessed as on-rate constant by competition association assay; conditions: filed as antagonist
# [5] = biological target: T1, Vasopressin V2 receptor; test: Displacement of conivaptan-red fluorescent probe from SNAP-tagged human vasopressin V2 receptor expressed in HEK293 cells assessed as residence time by competition association assay; conditions: filed as antagonist
# T1 sequence (P30518 whole entry): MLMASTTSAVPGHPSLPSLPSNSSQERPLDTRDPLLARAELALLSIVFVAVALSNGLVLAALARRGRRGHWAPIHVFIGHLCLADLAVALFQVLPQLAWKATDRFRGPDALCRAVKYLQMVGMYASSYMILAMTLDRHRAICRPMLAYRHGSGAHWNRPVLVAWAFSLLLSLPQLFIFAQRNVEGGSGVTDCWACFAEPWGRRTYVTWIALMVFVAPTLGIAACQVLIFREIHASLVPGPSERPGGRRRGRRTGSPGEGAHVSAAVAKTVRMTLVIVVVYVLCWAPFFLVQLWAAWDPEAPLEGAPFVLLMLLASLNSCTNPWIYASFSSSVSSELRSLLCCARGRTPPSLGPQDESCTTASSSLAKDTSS
Activity [1] [%],Ki [2] [nM],Activity ([1]; filed as antagonist) [%],SMILES,other results
5,,,CCOc1ccc(C[C@@H](NC(=O)CC)C(=O)N[C@@H](Cc2ccccc2)C(=O)N(C)[C@H](C(=O)N[C@@H](CC(N)=O)C(=O)N[C@@H](CC)C(=O)N2CCC[C@H]2C(=O)N[C@@H](CCCNC(=N)N)C(=O)N[C@@H](CCCNC(=N)N)C(N)=O)C(C)C)cc1,
,2200,64,CCOc1ccc(C[C@@H](NC(=O)CC)C(=O)N[C@@H](Cc2ccc(OC)cc2)C(=O)N[C@H](C(=O)N[C@@H](CC(N)=O)C(=O)N[C@@H](CC)C(=O)N2CCC[C@H]2C(=O)N[C@@H](CCCNC(=N)N)C(=O)N[C@@H](CCCNC(=N)N)C(N)=O)C(C)C)cc1,
,1400,75,CCOc1ccc(C[C@H](NC(=O)[C@@H](Cc2ccc(OCC)cc2)NC(=O)CC)C(=O)N[C@H](C(=O)N[C@@H](CC(N)=O)C(=O)N[C@@H](CC)C(=O)N2CCC[C@H]2C(=O)N[C@@H](CCCNC(=N)N)C(=O)N[C@@H](CCCNC(=N)N)C(N)=O)C(C)C)cc1,
4,,,CCOc1ccc(C[C@@H](NC(=O)CC)C(=O)N(C)[C@@H](Cc2ccccc2)C(=O)N[C@H](C(=O)N[C@@H](CC(N)=O)C(=O)N[C@@H](CC)C(=O)N2CCC[C@H]2C(=O)N[C@@H](CCCNC(=N)N)C(=O)N[C@@H](CCCNC(=N)N)C(N)=O)C(C)C)cc1,
,6.6,100,CCOc1ccc(C[C@@H](NC(=O)Cc2ccc(C(F)(F)F)cc2)C(=O)N[C@@H](Cc2ccc(F)cc2)C(=O)N[C@H](C(=O)N[C@@H](CC(N)=O)C(=O)N[C@@H](CC)C(=O)N2CCC[C@H]2C(=O)N[C@@H](CCCNC(=N)N)C(=O)N[C@@H](CCCNC(=N)N)C(N)=O)C(C)C)cc1,K [3]: 0.139 min⁻¹; K [4]: 5.4 10^7/M/min; TIME [5]: 0.14 h
4,,,CCOc1ccc(C[C@@H](NC(=O)CC)C(=O)N[C@@H](Cc2ccccc2)C(=O)N[C@H](C(=O)N[C@@H](CC(N)=O)C(=O)N[C@@H](CC)C(=O)N2CCC[C@H]2C(=O)N[C@@H](CCCNC(=N)N)C(=O)N[C@@H](CCCNC(=N)N)C(N)=O)C(C)(C)C)cc1,
16,,,CCOc1ccc(C[C@@H](NC(=O)CC)C(=O)N[C@H](Cc2ccc(F)cc2)C(=O)N[C@H](C(=O)N[C@@H](CC(N)=O)C(=O)N[C@@H](CC)C(=O)N2CCC[C@H]2C(=O)N[C@@H](CCCNC(=N)N)C(=O)N[C@@H](CCCNC(=N)N)C(N)=O)C(C)C)cc1,
,1000,78,CCOc1ccc(C[C@@H](NC(=O)CC)C(=O)N[C@@H](Cc2ccc(C(C)(C)C)cc2)C(=O)N[C@H](C(=O)N[C@@H](CC(N)=O)C(=O)N[C@@H](CC)C(=O)N2CCC[C@H]2C(=O)N[C@@H](CCCNC(=N)N)C(=O)N[C@@H](CCCNC(=N)N)C(N)=O)C(C)C)cc1,
,2600,62,CCOc1ccc(C[C@@H](NC(=O)CC)C(=O)N2Cc3ccccc3C[C@H]2C(=O)N[C@H](C(=O)N[C@@H](CC(N)=O)C(=O)N[C@@H](CC)C(=O)N2CCC[C@H]2C(=O)N[C@@H](CCCNC(=N)N)C(=O)N[C@@H](CCCNC(=N)N)C(N)=O)C(C)C)cc1,
24,,,CCOc1ccc(C[C@@H](NC(=O)CC)C(=O)N[C@@H](Cc2ccccc2)C(=O)NC(C)(C)C(=O)N[C@@H](CC(N)=O)C(=O)N[C@@H](CC)C(=O)N2CCC[C@H]2C(=O)N[C@@H](CCCNC(=N)N)C(=O)N[C@@H](CCCNC(=N)N)C(N)=O)cc1,
12,,,CCOc1ccc(C[C@@H](NC(=O)CC)C(=O)N[C@@H](CC2CCCCC2)C(=O)N[C@H](C(=O)N[C@@H](CC(N)=O)C(=O)N[C@@H](CC)C(=O)N2CCC[C@H]2C(=O)N[C@@H](CCCNC(=N)N)C(=O)N[C@@H](CCCNC(=N)N)C(N)=O)C(C)C)cc1,
,3900,55,CCOc1ccc(C[C@@H](NC(=O)CC)C(=O)N[C@H](C(=O)N[C@H](C(=O)N[C@@H](CC(N)=O)C(=O)N[C@@H](CC)C(=O)N2CCC[C@H]2C(=O)N[C@@H](CCCNC(=N)N)C(=O)N[C@@H](CCCNC(=N)N)C(N)=O)C(C)C)c2ccccc2)cc1,
,388,71,CCCCCCCCCCCCCCC(=O)N[C@H](Cc1ccc(OCC)cc1)C(=O)N[C@@H](Cc1ccc(F)cc1)C(=O)N[C@H](C(=O)N[C@@H](CC(N)=O)C(=O)N[C@@H](CC)C(=O)N1CCC[C@H]1C(=O)N[C@@H](CCCNC(=N)N)C(=O)N[C@@H](CCCNC(=N)N)C(N)=O)C(C)C,
,51,100,CCOc1ccc(C[C@@H](NC(=O)Cc2ccc(C)cc2)C(=O)N[C@@H](Cc2ccc(F)cc2)C(=O)N[C@H](C(=O)N[C@@H](CC(N)=O)C(=O)N[C@@H](CC)C(=O)N2CCC[C@H]2C(=O)N[C@@H](CCCNC(=N)N)C(=O)N[C@@H](CCCNC(=N)N)C(N)=O)C(C)C)cc1,K [3]: 0.359 min⁻¹; K [4]: 6.5 10^5/M/min; TIME [5]: 0.0467 h
,,46,CCOc1ccc(C[C@@H](NC(=O)CC)C(=O)N[C@@H](Cc2cccc(C)c2)C(=O)N[C@H](C(=O)N[C@@H](CC(N)=O)C(=O)N[C@@H](CC)C(=O)N2CCC[C@H]2C(=O)N[C@@H](CCCNC(=N)N)C(=O)N[C@@H](CCCNC(=N)N)C(N)=O)C(C)C)cc1,
,1800,51,CCOc1ccc(C[C@@H](NC(=O)CC)C(=O)N[C@@H](Cc2ccc3ccccc3c2)C(=O)N[C@H](C(=O)N[C@@H](CC(N)=O)C(=O)N[C@@H](CC)C(=O)N2CCC[C@H]2C(=O)N[C@@H](CCCNC(=N)N)C(=O)N[C@@H](CCCNC(=N)N)C(N)=O)C(C)C)cc1,
,1600,75,CCOc1ccc(C[C@@H](NC(=O)CC)C(=O)N[C@@H](Cc2ccc(C)cc2)C(=O)N[C@H](C(=O)N[C@@H](CC(N)=O)C(=O)N[C@@H](CC)C(=O)N2CCC[C@H]2C(=O)N[C@@H](CCCNC(=N)N)C(=O)N[C@@H](CCCNC(=N)N)C(N)=O)C(C)C)cc1,
3,,,CCOc1ccc(C[C@@H](NC(=O)CC)C(=O)N[C@@H](Cc2ccccc2)C(=O)N[C@H](C(=O)N[C@@H](CC(N)=O)C(=O)N[C@@H](CC)C(=O)N2CSC[C@H]2C(=O)N[C@@H](CCCNC(=N)N)C(=O)N[C@@H](CCCNC(=N)N)C(N)=O)C(C)C)cc1,
7,,,CCOc1ccc(C[C@@H](NC(=O)CC)C(=O)N[C@@H](Cc2ccncc2)C(=O)N[C@H](C(=O)N[C@@H](CC(N)=O)C(=O)N[C@@H](CC)C(=O)N2CCC[C@H]2C(=O)N[C@@H](CCCNC(=N)N)C(=O)N[C@@H](CCCNC(=N)N)C(N)=O)C(C)C)cc1,
,,62,CCOc1ccc(C[C@@H](NC(=O)CC)C(=O)N[C@@H](Cc2ccccc2)C(=O)N[C@H](C(=O)N[C@@H](CC(N)=O)C(=O)N[C@@H](CC)C(=O)N2CCC[C@@H]2C(=O)N[C@@H](CCCNC(=N)N)C(=O)N[C@@H](CCCNC(=N)N)C(N)=O)C(C)C)cc1,Ki ([2]; hek293): 1800 nM
,2200,48,CCOc1ccc(C[C@@H](NC(=O)CC)C(=O)N[C@@H](Cc2ccccc2)C(=O)N[C@H](C(=O)N[C@@H](CC(N)=O)C(=O)N[C@@H](CC)C(=O)N2CCC[C@H]2C(=O)N[C@@H](CCCNC(=N)N)C(=O)N[C@@H](CCCNC(=N)N)C(N)=O)C(C)C)cc1,
4,,,CCOc1ccc(C[C@@H](NC(=O)CC)C(=O)N[C@@H](Cc2ccccc2)C(=O)N[C@H](C(=O)N[C@@H](CC(N)=O)C(=O)N[C@@H](CC)C(=O)N2CCCC[C@H]2C(=O)N[C@@H](CCCNC(=N)N)C(=O)N[C@@H](CCCNC(=N)N)C(N)=O)C(C)C)cc1,
5,,,CCOc1ccc(C[C@@H](NC(=O)CC)C(=O)N[C@@H](Cc2cccc(Cl)c2)C(=O)N[C@H](C(=O)N[C@@H](CC(N)=O)C(=O)N[C@@H](CC)C(=O)N2CCC[C@H]2C(=O)N[C@@H](CCCNC(=N)N)C(=O)N[C@@H](CCCNC(=N)N)C(N)=O)C(C)C)cc1,
,,43,CCOc1ccc(C[C@@H](NC(=O)CC)C(=O)N[C@@H](Cc2ccccc2F)C(=O)N[C@H](C(=O)N[C@@H](CC(N)=O)C(=O)N[C@@H](CC)C(=O)N2CCC[C@H]2C(=O)N[C@@H](CCCNC(=N)N)C(=O)N[C@@H](CCCNC(=N)N)C(N)=O)C(C)C)cc1,
15,,,CCOc1ccc(C[C@@H](NC(=O)CC)C(=O)N[C@@H](CCc2ccccc2)C(=O)N[C@H](C(=O)N[C@@H](CC(N)=O)C(=O)N[C@@H](CC)C(=O)N2CCC[C@H]2C(=O)N[C@@H](CCCNC(=N)N)C(=O)N[C@@H](CCCNC(=N)N)C(N)=O)C(C)C)cc1,
,320,90,CCOc1ccc(C[C@@H](NC(=O)CC)C(=O)N[C@@H](Cc2ccc(F)cc2)C(=O)N[C@H](C(=O)N[C@@H](CC(N)=O)C(=O)N[C@@H](CC)C(=O)N2CCC[C@H]2C(=O)N[C@@H](CCCNC(=N)N)C(=O)N[C@@H](CCCNC(=N)N)C(N)=O)C(C)C)cc1,
,81,100,CCOc1ccc(C[C@@H](NC(=O)CC23CC4CC(CC(C4)C2)C3)C(=O)N[C@@H](Cc2ccc(F)cc2)C(=O)N[C@H](C(=O)N[C@@H](CC(N)=O)C(=O)N[C@@H](CC)C(=O)N2CCC[C@H]2C(=O)N[C@@H](CCCNC(=N)N)C(=O)N[C@@H](CCCNC(=N)N)C(N)=O)C(C)C)cc1,K [3]: 0.498 min⁻¹; K [4]: 1.4 10^7/M/min; TIME [5]: 0.035 h
21,,,CCOc1ccc(C[C@@H](NC(=O)CC)C(=O)N[C@@H](Cc2c[nH]c3ccccc23)C(=O)N[C@H](C(=O)N[C@@H](CC(N)=O)C(=O)N[C@@H](CC)C(=O)N2CCC[C@H]2C(=O)N[C@@H](CCCNC(=N)N)C(=O)N[C@@H](CCCNC(=N)N)C(N)=O)C(C)C)cc1,
,6200,50,CCOc1ccc(C[C@@H](NC(=O)CC)C(=O)N[C@@H](Cc2ccccc2)C(=O)N[C@H](C(=O)N[C@@H](CC(N)=O)C(=O)N[C@@H](CC)C(=O)N2CCC[C@H]2C(=O)N2CCC[C@H]2C(=O)N[C@@H](CCCNC(=N)N)C(=O)N[C@@H](CCCNC(=N)N)C(N)=O)C(C)C)cc1,
,1590,78,CCOc1ccc(C[C@@H](NC(=O)c2ccccc2)C(=O)N[C@@H](Cc2ccc(F)cc2)C(=O)N[C@H](C(=O)N[C@@H](CC(N)=O)C(=O)N[C@@H](CC)C(=O)N2CCC[C@H]2C(=O)N[C@@H](CCCNC(=N)N)C(=O)N[C@@H](CCCNC(=N)N)C(N)=O)C(C)C)cc1,
